{
  "source": "patent US11733243B2",
  "about": "“Use of acamprosate to modulate ERK1/2 activation in animal models for FXS and ASD and individuals diagnosed with FXS and ASD” (Indiana University Research and Technology Corporation, priority 2013, dated 2023)",
  "test_system": "patients diagnosed with FXS",
  "test": "10-week open-label trial of acamprosate in youth with FXS: behavioral outcome measures",
  "type": "in vivo, human",
  "parameters": "key to mean CGI-I at endpoint: CGI-I score: 1 = very much improved, 2 = much improved",
  "conditions": "for Aberrant Behavior Checklist-Social Avoidance (ABC-SA), End point (mean ± SD): baseline 3.3 ± 2.6; for Clinical Global Impressions-Severity (CGI-S), End point (mean ± SD): baseline 4.25 ± 0.45; for Clinical Global Impressions-Severity (CGI-S), End point (mean ± SD) / ADHD Rating Scale 4th Edition (ADHD-RS), End point (mean ± SD): p<0.0001; for Aberrant Behavior Checklist-Social Withdrawal (ABC-SW), End point (mean ± SD): baseline 8.8 ± 5.8, p=0.04 (Table 5: 7.33 ± 5.2, p=0.014); for Aberrant Behavior Checklist-Hyperactivity (ABC-H), End point (mean ± SD): baseline 16.8 ± 9.1, p=0.009; for ADHD Rating Scale 4th Edition (ADHD-RS), End point (mean ± SD): baseline 23.6 ± 10.6; for Vineland Adaptive Behavior Scale (VABS) Communication Domain, End point (mean ± SD): baseline 63.4 ± 10.1, p=0.03; for VABS Expressive Communication Subdomain, End point (mean ± SD): baseline 69.8 ± 23.0; for Social Responsiveness Scale total score (SRS), End point (mean ± SD): baseline 91.3 ± 27.4, p=0.005",
  "from_the_text": "The Institutional Review Board (IRB) at an academic medical center approved this study. Thirteen outpatient males and females aged 5 to 17 years with body weight≥15 kg were recruited for this study. Written informed consent was obtained from each participant's legal guardian (parent for all children in this report), and subjects provided assent when able. Diagnosis of FXS was confirmed by Southern Blot and PCR results consistent with a greater than 200 CGG repeat expansion in the fmr1 gene with at least partial gene methylation. Subjects had to be free of other significant medical conditions. The concomitant use of psychotropic drugs that are not thought to impact glutamate neurotransmission were allowed so long as the patients experienced stable dosing at least 4 weeks prior to baseline. Subjects were required to have a mental age of greater than 18 months as determined by the Stanford-Binet 5th Edition. Additional inclusion criteria included a CGI-S (Guy 1976) score of at least 4 (“Moderately Ill”). Subjects with a Diagnostic and Statistical Manual of Mental Disorders, 4th Edition, Text Revision (DSM-IV-TR) diagnosis of a psychotic disorder, bipolar disorder, or substance use disorder were excluded from the study. Additionally, subjects with a positive urine pregnancy test, creatinine clearance of <30, active seizure disorder, or other significant medical condition were excluded.\nA 10-week, prospective, open-label study design was chosen to gather pilot data for potential future larger-scale, double-blind, placebo-controlled studies in this population.\nAll subjects underwent a screening and baseline visit followed by follow-up visits every 2 weeks during the 10-week open-label trial period. At the end of weeks 1, 3, and 5 the investigators called the parent to assess drug tolerability and to make dose adjustments as indicated. All subjects received 333 mg/day of acamprosate during the first week of the study. The investigators then increased the dosage to a maximum of 1,998 mg/day (weight>50 kg) or 1,332 mg/day (weight<50 kg) over the first six weeks of the study, if optimal clinical response (CGI-I equal to 1 “very much improved”) had not occurred and intolerable adverse effects had not emerged. The dose maintenance phase lasted 4 weeks at the optimal dosage.\nThe CGI-S assessment was administered at screen and at baseline as part of the eligibility criteria described above. In this study, the rater scored the CGI-S in regard to severity of symptoms commonly noted in FXS including, but not limited to, inattention/hyperactivity, social impairment, communication impairment, repetitive behavior, irritability, and anxiety. The CGI-S is rated on a scale from 1 to 7 (1=normal, not ill at all; 2=borderline ill; 3=mildly ill; 4=moderately ill; 5=markedly ill; 6=severely ill; 7=among the most extremely ill patients with FXS). The Autism Diagnostic Observation Schedule (ADOS) (Lord, Rutter et al. 1989) was administered at baseline to characterize potential concomitant ASD diagnosis.\nThe primary outcome measure was the CGI-I. The CGI-I is a scale designed to assess global change from baseline. […] Treatment response was defined by a CGI-I score of 1 “very much improved” or 2 “much improved.” In this study, the CGI-I was utilized as a general global primary outcome measure given the uncertainty as to what specific symptoms/behaviors associated with FXS may be expected to improve or worsen with use of acamprosate. The CGI-I was administered at all visits after baseline.\nSecondary outcome measures included all subscales of the ABC (Irritability, Social Withdrawal, Stereotypy, Hyperactivity, and Inappropriate Speech). The ABC is an informant-rated (primary caregiver) measure with confirmed reliability and validity with regard to factor structure, distribution of scores, and sensitivity to change in persons with developmental disability (Aman, Singh et al. 1985). […]",
  "key": {"[1]": {"conditions": "FXS, n=12, 10 weeks, listed as acamprosate"}, "[2]": {"conditions": "FXS, mean change from baseline to endpoint divided by SD at baseline"}},
  "note": "Where “and” joins values, the source holds several entries; their conditions need not be identical. Equal values may be shown once.",
  "data": [
    {"smiles": "CC(=O)NCCCS(=O)(=O)O", "note": "[Acamprosate, 3-Acetamidopropane-1-sulfonic acid]", "values": [
      {"measurement": "Treatment responders (CGI-I score of 1 very much improved or 2 much improved)", "setting": "12 youth with FXS, 10 weeks, mean final dose 1054 mg/day", "result": 75, "unit": "%"},
      {"measurement": "Other subscales of the ABC and the CY-BOCS-PDD", "setting": "FXS, 10 weeks", "result": "did not change significantly during treatment"},
      {"measurement": "SRS Social Awareness and Autistic Mannerisms subscales", "setting": "FXS, 10 weeks", "result": "Improvement was not noted"},
      {"measurement": "decline of mean ABC-H score, baseline to endpoint", "setting": "FXS, 10 weeks", "result": 35, "unit": "%"},
      {"measurement": "decline of mean ABC-SA score, baseline to endpoint", "setting": "FXS, 10 weeks", "result": 51, "unit": "%"},
      {"measurement": "decline of mean ABC-SW score, baseline to endpoint", "setting": "FXS, 10 weeks", "result": 53, "unit": "%"},
      {"measurement": "decline of mean ADHD-RS score, baseline to endpoint", "setting": "FXS, 10 weeks", "result": 29, "unit": "%"},
      {"measurement": "decline of mean total SRS raw score, baseline to endpoint", "setting": "FXS, 10 weeks", "result": 16, "unit": "%"},
      {"measurement": "improvement of mean VABS Communication Domain standard score", "setting": "FXS, 10 weeks", "result": 5, "unit": "%"},
      {"measurement": "improvement of mean VABS Expressive Communication score", "setting": "FXS, 10 weeks", "result": 13, "unit": "%"},
      {"measurement": "other domains of the VABS", "setting": "FXS, 10 weeks", "result": "No other changes with treatment were noted"},
      {"measurement": "Peabody Picture Vocabulary Test (PPVT), End point (mean ± SD)", "setting": "FXS, 10 weeks, baseline 85.2 ± 32.0, p=0.53", "result": "did not significantly change with treatment"},
      {"measurement": "decline of SRS Social Motivation subscale", "setting": "FXS, 10 weeks, p=0.003", "result": 28, "unit": "%"},
      {"measurement": "decline of SRS Social Cognition subscale", "setting": "FXS, 10 weeks, p=0.01", "result": 19, "unit": "%"},
      {"measurement": "decline of SRS Social Communication subscale", "setting": "FXS, 10 weeks, p=0.01", "result": 14, "unit": "%"},
      {"measurement": "mean CGI-I at endpoint", "setting": "FXS, Week 10, scale 1-7", "result": "1.92 and 1.9"},
      {"measurement": "Aberrant Behavior Checklist-Social Avoidance (ABC-SA), End point (mean ± SD)", "setting": "FXS, n=12, 10 weeks, p=0.01", "result": "1.6 ± 2.7"},
      {"measurement": "Aberrant Behavior Checklist-Social Avoidance (ABC-SA), End point (mean ± SD)", "setting": "FXS, n=12, 10 weeks, p=0.01, listed as acamprosate", "result": 1.6},
      {"measurement": "Clinical Global Impressions-Severity (CGI-S), End point (mean ± SD)", "setting": "FXS, n=12, 10 weeks", "result": "3.33 ± 0.5 and 3.33 ± 0.49"},
      {"measurement": "Clinical Global Impressions-Severity (CGI-S), End point (mean ± SD)", "setting": "[1]", "result": 3.33},
      {"measurement": "Aberrant Behavior Checklist-Inappropriate Speech (ABC-IS), End point (mean ± SD)", "setting": "FXS, n=12, 10 weeks, baseline 5.2 ± 3.5, p=0.61", "result": "4.8 ± 3.4"},
      {"measurement": "Aberrant Behavior Checklist-Social Withdrawal (ABC-SW), End point (mean ± SD)", "setting": "FXS, n=12, 10 weeks", "result": "4.1 ± 6.5"},
      {"measurement": "Aberrant Behavior Checklist-Social Withdrawal (ABC-SW), End point (mean ± SD)", "setting": "[1]", "result": 4.1},
      {"measurement": "Aberrant Behavior Checklist-Irritability (ABC-I), End point (mean ± SD)", "setting": "FXS, n=12, 10 weeks, baseline 9.9 ± 7.8, p=0.11", "result": "7.0 ± 8.9"},
      {"measurement": "Children's Yale-Brown Obsessive Compulsive Scale Modified for PDD (CY-BOCS-PDD), End point (mean ± SD)", "setting": "FXS, n=12, 10 weeks, baseline 11.1 ± 2.6, p=0.15", "result": "9.8 ± 4.1"},
      {"measurement": "Aberrant Behavior Checklist-Hyperactivity (ABC-H), End point (mean ± SD)", "setting": "FXS, n=12, 10 weeks", "result": "11.0 ± 8.6"},
      {"measurement": "Aberrant Behavior Checklist-Hyperactivity (ABC-H), End point (mean ± SD)", "setting": "[1]", "result": 11.0},
      {"measurement": "ADHD Rating Scale 4th Edition (ADHD-RS), End point (mean ± SD)", "setting": "FXS, n=12, 10 weeks", "result": "16.7 ± 8"},
      {"measurement": "ADHD Rating Scale 4th Edition (ADHD-RS), End point (mean ± SD)", "setting": "[1]", "result": 16.7},
      {"measurement": "Vineland Adaptive Behavior Scale (VABS) Communication Domain, End point (mean ± SD)", "setting": "FXS, n=12, 10 weeks", "result": "66.6 ± 11.2"},
      {"measurement": "Vineland Adaptive Behavior Scale (VABS) Communication Domain, End point (mean ± SD)", "setting": "[1]", "result": 66.6},
      {"measurement": "VABS Expressive Communication Subdomain, End point (mean ± SD)", "setting": "FXS, n=12, 10 weeks, p=0.003", "result": "78.9 ± 21.2"},
      {"measurement": "VABS Expressive Communication Subdomain, End point (mean ± SD)", "setting": "FXS, n=12, 10 weeks, p=0.003, listed as acamprosate", "result": 78.9},
      {"measurement": "Social Responsiveness Scale total score (SRS), End point (mean ± SD)", "setting": "FXS, n=12, 10 weeks", "result": "76.4 ± 26.8 and 76.42 ± 26.8"},
      {"measurement": "Social Responsiveness Scale total score (SRS), End point (mean ± SD)", "setting": "[1]", "result": 76.4},
      {"measurement": "Effect Size, ABC-H", "setting": "[2]", "result": 0.64},
      {"measurement": "Effect Size, ABC-SA", "setting": "[2]", "result": 0.64},
      {"measurement": "Effect Size, ABC-SW", "setting": "[2]", "result": 0.81},
      {"measurement": "Effect Size, ADHD-RS", "setting": "[2]", "result": 0.65},
      {"measurement": "Effect Size, CGI-S", "setting": "[2]", "result": 2.0},
      {"measurement": "Effect Size, SRS total score", "setting": "[2]", "result": 0.54},
      {"measurement": "Effect Size, VABS Communication Domain", "setting": "[2]", "result": 0.32},
      {"measurement": "Effect Size, VABS Expressive Communication Subdomain", "setting": "[2]", "result": 0.4},
      {"measurement": "Effect Size, VABS Communication Domain", "setting": "FXS, mean change from baseline to endpoint divided by SD at baseline, listed as acamprosate", "result": 0.3},
      {"measurement": "youth judged responders to acamprosate (of those treated)", "setting": "youth with FXS, pre-specified indicators of clinical response", "result": "9 of 12"}
    ]}
  ]
}
